Results reported in paper PMC6843521, “Discrimination of Oviposition Deterrent Volatile β-Ionone by Odorant-Binding Proteins 1 and 4 in the Whitefly Bemisia tabaci” (Biomolecules, 2019).
Counter-ions that a name gives are not always drawn. Like-named read-outs stand apart in the source and are kept apart here.

Key:
OBP4 [1] = biological target: T1, OBP4 (Bemisia tabaci, UniProt A0A1S6JPY9); experiment: Fluorescence competitive binding assay, recombinant OBP4 with bis-ANS probe
Protocol: (§1) N-Phenyl-1-naphthylamine (1-NPN), 4,4′-Dianilino-1,1′-binaphthyl-5,5′-disulfonic acid dipotassium salt (bis-ANS), β-ionone, α-ionone, and […] were diluted with chromatographic-grade methanol to a final concentration of 1 mmol·L^−1, and the protein was diluted with 50 mM Tris-HCl (pH 7.4) to a final concentration of 2 μmol·L^−1. When 1-NPN was used as fluorescent probe, the excitation wavelength of the fluorescence spectrophotometer was set to 337 nm, and the scanning range was 350−500 nm. When bis-ANS was used as fluorescent probe, the excitation wavelength of the fluorescence spectrophotometer was set to 295 nm, and the scanning range was 300−550 nm. The fluorescent probe was gradually added to the protein-containing quartz tube to make it close to saturation. According to the Scatchard equation [35], the binding dissociation constants K1-NPN of OBP1 and the fluorescent probe 1-NPN and Kbis-ANS of OBP4 and fluorescent probe bis-ANS were determined. Protein and fluorescent probes were added to the quartz dish (the final concentration was 2 μM), and ionone was gradually added to determine the binding ability of the protein and ionone, and the dissociation constant Ki was calculated using the formula: Ki = [IC50]/(1 + [L]/KL), where [IC50] is the concentration of the ligand at which the fluorescence intensity is reduced by half, [L] is the concentration of the free fluorescent probe, and KL is the binding dissociation constant of the protein and the fluorescent probe. N-Phenyl-1-naphthylamine (1-NPN, Chemical Abstract Service (CAS): 90-30-2), 4,4’-dianilino-1,1’-binaphthyl-5,5’-disulfonic acid dipotassium salt (bis-ANS, CAS: 65664-81-5), methanol (CAS: 67-56-1), α-ionone (CAS: 127-41-3), β-ionone (CAS: 14901-07-6), and dihydro-β-ionone (CAS: 17283-81-7) were purchased from Sigma-Aldrich (St. Louis, MO, USA).

B. tabaci = details: cited from earlier work
OBP8 = biological target: OBP8; set-up: method as in doi:10.1016/j.cropro.2009.10.001, PMID 19458158; details: B. tabaci OBP8; ref [9],[31]; cited from earlier work
OBP4 [2] = biological target: T1, OBP4; experiment: Fluorescence competitive binding, OBP4 with 1-NPN as probe (Figure S2D); details: OBP4, 1-NPN as probe
Protocol: as §1

OBP1 [3] = biological target: T2, OBP1 (Bemisia tabaci, UniProt A0A1S6JPY5); experiment: Fluorescence competitive binding assay, recombinant OBP1 with 1-NPN probe
Protocol: as §1

OBP1 [4] = biological target: T2, OBP1; experiment: Fluorescence competitive binding, OBP1 with bis-ANS as probe (Figure S2C)
Protocol: as §1

flea beetle = test system: flea beetle; set-up: method as in Caceres et al. [10]; details: ref Caceres et al. [10]; cited from earlier work
spider mite = test system: spider mite; set-up: method as in Caceres et al. [10]; details: ref Caceres et al. [10]; cited from earlier work

T1 sequence (A0A1S6JPY9 entry or part of it): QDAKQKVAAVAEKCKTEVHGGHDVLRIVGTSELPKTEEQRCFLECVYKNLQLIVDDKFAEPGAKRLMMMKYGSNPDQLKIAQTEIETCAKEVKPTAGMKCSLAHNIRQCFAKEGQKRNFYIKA
T2 sequence (A0A1S6JPY5 entry or part of it): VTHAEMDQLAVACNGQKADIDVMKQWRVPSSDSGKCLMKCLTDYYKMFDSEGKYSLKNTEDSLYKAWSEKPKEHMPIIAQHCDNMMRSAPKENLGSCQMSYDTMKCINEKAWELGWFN

| binding ability (words) (OBP4 [2]) | binding ability (words) (OBP1 [4]) | Compound | IC50 (OBP4 [1]) [µM] | IC50 (OBP1 [3]) [µM] | binding ability (words) (OBP4 [1]; OBP4, bis-ANS probe) | binding ability (words) (OBP1 [3]; OBP1, 1-NPN probe) | also measured |
| --- | --- | --- | --- | --- | --- | --- | --- |
| – | – | O=S(=O)(O)c1cccc2c(-c3ccc(Nc4ccccc4)c4c(S(=O)(=O)O)cccc34)ccc(Nc3ccccc3)c12 [bis-ANS, 4,4′-Dianilino-1,1′-binaphthyl-5,5′-disulfonic acid dipotassium salt, reference compound] | – | – | – | – | Kd (OBP4 [1]; OBP4 2 μmol·L^−1, 50 mM Tris-HCl pH 7.4, excitation 295 nm, read-out: dissociation constant of fluorescent probe (Scatchard)): 2.68 µM |
| bonded well | bonded well | CC(=O)/C=C/C1=C(C)CCCC1(C)C [β-ionone] | 5.14 | 7.16 | – | – | B. tabaci egg production (B. tabaci; concentrations of 0.1 ng/μL and 0.5 ng/μL, ref Cáceres et al. [10]): significantly inhibit; oviposition deterrence to whiteflies (B. tabaci; ref Caceres et al. [10]): significant oviposition deterrence; Ki (OBP8): 13.3 µM; repellent effect (flea beetle): strong repellent effect; repellent effect (spider mite): strong repellent effect |
| did not | did not | CC(=O)CCC1=C(C)CCCC1(C)C [dihydro-β-ionone] | – | – | hardly displaced the fluorescent probe | hardly displaced the fluorescent probe | IC50 (OBP4 [1]; OBP4, bis-ANS probe, dash symbol of Table S2, read-out: IC50): > 50 µM; IC50 (OBP1 [3]; OBP1, 1-NPN probe, dash symbol of Table S2, read-out: IC50): > 50 µM |
| – | – | c1ccc(Nc2cccc3ccccc23)cc1 [1-NPN, N-Phenyl-1-naphthylamine, reference compound] | – | – | – | – | Kd (OBP1 [3]): 3.38 µM |

| Compound | binding ability (words) (OBP4 [2]) | binding ability (words) (OBP1 [4]) | IC50 (OBP4 [1]) [µM] | IC50 (OBP1 [3]) [µM] | binding ability (words) (OBP4 [1]; OBP4, bis-ANS probe) | binding ability (words) (OBP1 [3]; OBP1, 1-NPN probe) | also measured |
| --- | --- | --- | --- | --- | --- | --- | --- |
| CC(=O)/C=C/C1C(C)=CCCC1(C)C (stereo not drawn) [α-ionone] | did not | did not | 21.1 | 40.1 | weak binding | weak binding | ovipositioning repellent to whitefly (B. tabaci; doses of 0.05 ng/μL and 0.5 ng/μL, ref [10]): weak ovipositioning repellent; binding ability (words) (OBP4 [1]; OBP4, bis-ANS probe, listed as α-Ionone): weaker binding; binding ability (words) (OBP1 [3]; OBP1, 1-NPN probe, listed as α-Ionone): weaker binding |
